Test results published in patent US8309788B2, “Protease inhibitors in absorbent articles” (The Procter and Gamble Company, priority 1999, dated 2012).
Where a SMILES comes first, the peptide text is derived from it. [ ]: non-standard residue; d: D form. The star is where a group is joined. Sta = CC(C)C[C@H](N)[C@@H](O)CC(=O)O; Isovaleryl = CC(C)CC(=O)*

B1: Soybean trypsin inhibitor: plant-derived trypsin inhibitor; serine protease inhibitor (protein, UniProt P01070 25-205, looked up)
Trypsin inhibitor A: DFVLDNEGNPLENGGTYYILSDITAFGGIRAAPTGNERCPLTVVQSRNELDKGIGTIISSPYRIRFIAEGHPLSLKFDSFAVIMLCVGIPTEWSVVEDLPEGPAVKIGENKDAMDGWFRLERVSDDEFNNYKLVFCPQQAEDDKCGDIGISIDHDDGTRRLVVSKNKPLVVQFQKLDKESL

Experiments:
purified chymotrypsin = test: Purified Protease Method: purified chymotrypsin; format: biochemical; details: pH 7.6, 25° C., read-out: IC50 Values, Purified Proteases, Chymotrypsin
Protocol: Standard in vitro assays for enzyme activity and inhibition of enzyme activity are well known. The reagents used to conduct these tests are generally commercially available. In general, a simple system comprises an enzyme-specific substrate which, when hydrolyzed by the enzyme, produces a colored product. The activity of the enzyme is measured spectrophotometrically as the degree of development of the colored product (i.e. the rate of color change) over a predetermined time period.
For the Purified Protease assay and the Fecal Protease assays described below, the IC50 for each inhibitor tested is calculated according to the following equation: IC50=[I]/[(v/vi)−1] where: [I] is the inhibitor concentration tested, v is the rate of substrate cleavage in the absence of inhibitor and vi is the rate of substrate cleavage in the presence of inhibitor.
The following Purified Protease and Fecal Protease Methods are utilized to determine the inhibitory activity of putative protease inhibitors against a) purified proteases known to exist in feces; and b) the protease activity of feces itself; respectively. […] In the Methods, v and vi are measured as the change in absorbance (optical density, OD) at a given wavelength/time (e.g., minutes).
To test the efficacy of protease inhibitors against purified chymotrypsin, 0.05 mL of a putative inhibitor and 0.125 mL of 16 nM chymotrypsin (e.g., Sigma, St. Louis, Mo., catalogue no. C8946) in chymotrypsin buffer (50 mM TRIS, 10 mM CaCl2, pH 7.6) are added to a microcuvette. […] To this mixture, 0.025 mL of substrate (0.6 mM N-Succ-Ala-Ala-Pro-Phe-p-nitroanilide, e.g., Sigma cat. no. S7388) in chymotrypsin buffer is added to the cuvette, mixed, and the absorbance at 405 nm measured over 10 minutes at 25° C. The rate of substrate cleavage in the presence of inhibitor (vi) is the slope of a plot relating the absorbance at 405 nm versus time. […] The rate of substrate cleavage in the absence of inhibitor (v) is the slope of a plot relating the absorbance at 405 nm versus time. […]

[1] = tested on: IL-1α production by cultured keratinocytes in the presence of feces; test: In Vitro Skin Test for Inhibition of IL-1α Production; format: cell-based, human
Excerpt: In an in vitro method to determine the efficacy of protease inhibitors in preventing the proinflammatory response of the skin to feces and fecal enzymes, human keratinocytes are obtained from epidermal tissue and cultured in serum free medium in plastic culture vessels containing a nylon mesh surface for a period of time until they are confluent. The mesh surface is then raised to the liquid air interface in order to promote differentiation and formation of multilayered organized layers analogous to those found in vivo, including a well defined stratum corneum barrier layer. Any cell culture system that promotes the growth and differentiation of keratinocytes, as described, may be employed. A commercially available cell culture system suitable for use in the invention is Epiderm (MatTek Corporation, Ashland, Mass.). Infant feces are collected in a manner to keep them free of urine contamination and diluted with phosphate-buffered saline (PBS) (pH 7.2-7.4.) The mixture is then mixed thoroughly to obtain a homogeneous suspension by homogenization or sonication. To assay for IL-1α production due to fecal enzyme activity, an aliquot of the homogenate is diluted with PBS and added to the surface of a control culture in a culture vessel. To assay for inhibition of IL-1α production due to protease activity, a predetermined quantity of a putative protease inhibitor is added to an otherwise identical diluted aliquot of the homogenate prior to adding it to the surface of a test culture. The cultures are allowed to incubate in a controlled atmosphere. At selected times, the control cultures and inhibitor-treated test cultures, and the underlying culture media are harvested. The culture media are assayed for the presence of IL-1α by known methods. For example, a suitable assay for IL-1α is an enzyme-linked immunoabsorbent method commercially available as Quantikine from R&D Systems, Minneapolis, Minn. The percent reduction in IL-1α production due to the presence of the protease inhibitor is calculated as follows: [formula] […]

Row | Molecule | IC50 (purified chymotrypsin) | further results
1 | CC(C)C[C@H](NC(=O)[C@@H](NC(=O)N[C@@H](Cc1ccccc1)C(=O)O)[C@@H]1CCN=C(N)N1)C(=O)N[C@H](C=O)Cc1ccccc1 [Chymostatin] | < 120 nM | 
2 | N=C(N)c1ccc(OCCCCCCOc2ccc(C(=N)N)cc2)cc1 [Hexamidine diisethionate, hexamidine diisethionate] |  | reduction of IL-1α production from skin cultures treated with feces ([1]; inhibitor concentration 100 μM): 5%; reduction of IL-1α production from skin cultures treated with feces ([1]; inhibitor concentration 1000 μM): 51-88%
3 | CC(C)CC(=O)N[C@H](C(=O)N[C@H](C(=O)N[C@@H](CC(C)C)[C@@H](O)CC(=O)N[C@@H](C)C(=O)N[C@@H](CC(C)C)[C@@H](O)CC(=O)O)C(C)C)C(C)C [Pepstatin A] (Isovaleryl-VV[Sta]A[Sta]-OH) | 4900 nM | 
4 | Aprotinin | 1000 nM | 
5 | B1 |  | reduction of IL-1α production from skin cultures treated with feces ([1]; inhibitor concentration 10 μM): 56-75%
